Reference: patent US20240239813A1, “KRAS INHIBITORS AND PHARMACEUTICAL USES THEREOF” (RISEN (SUZHOU) PHARMA TECH CO., LTD., priority 2022, published 2024)

How the values were obtained:
[1] = biological target: His-tagged Human KRAS^G12D (Homo sapiens (Human), UniProt P01116, G12D); test: HTRF KRAS G12D GTP binding assay; settings: displacement of GTP-Red tracer
Description: KRAS^G12D was used in this assay.
The ability of a test compound to bind to KRAS^G12D was measured by using an HTRF KRAS^G12D GTP Binding Kit (Cisbio, 63ADK000CB27PEG). […] 5 μL of compound solution was added to each well after serial dilution, followed by addition of 5 μL of GDP (50 nM) solution. After 30 minutes incubation at room temperature, 1×6His Eu cryptate antibody solution and GTP-Red tracer were added to the plate, then incubated for another 30 minutes. The HTRF signal was measured with a VICTOR Nivo multimode plate reader according to the manufacturer's instructions. The percent inhibition was calculated using the following formula: […]
(where the “Maximum Signal” are wells containing DMSO without inhibitor; the “Minimum Signal” are wells containing reference inhibitory component (GDP); the “Test compound signal” are wells containing test compound (inhibitor) at established concentrations).
IC50 was determined by fitting percent inhibition at each inhibitor concentration to the four-parameter nonlinear logistic equation using GraphPad Prism.

GP2D = test: Cell proliferation assay (CellTiterGlo), GP2D; format: cell-based; settings: Homo sapiens, 72 hours
Description: (§1) A cell proliferation assay was used to evaluate inhibition by exemplary compounds. Proliferation assays used human tissue derived cancer cell lines, for example, AsPC-1 (Cobioer, CBP60546), GP2D (Cobioer, CBP60683), NCI-H358 (Cobioer, CBP60544), NCI-H727 (Cobioer, CBP60182), MKN-1 (Cobioer, CBP60486), HCT116 (ATCC, CCL-247), and HT-29 (Cobioer, CBP60011). Signal reflecting cell proliferation was detected with the CellTiterGlo kit (Promega, G7573).
(§2) Cells were cultured in the growth phase and 3×10^3 cells per well were plated in a 96-well plate (Greiner, 655090). Cells were incubated 24 hours at 37° C. and 5% carbon dioxide in a humidity chamber. Serially diluted exemplary compounds were added to the plate which was then incubated for another 72 hours. Plates were brought to room temperature and an equal volume of CellTiterGlo reagent was added. After 10 minutes incubation at room temperature to stabilize the signal, the luminescent signal was measured on the VICTOR Nivo multimode plate reader according to the manufacturer's instructions. The signal was converted to percent inhibition using the following formula: […]
(§3) (where the “Maximum Signal” are wells containing DMSO without inhibitor; the “Minimum Signal” are signal of wells recorded at Day 0 prior to commencement of the experiment; the “Test compound signal” are wells containing inhibitor at established concentrations).
(§4) IC50 was determined by fitting percent inhibition at each inhibitor concentration to the four-parameter nonlinear logistic equation using GraphPad Prism. IC50 (nM) values of selected compounds are depicted in Table 4. “-”: means without measuring; and “ND” means not detected.

NCI-H358 = test: Cell proliferation assay (CellTiterGlo), NCI-H358; format: cell-based; settings: Homo sapiens, NCI-H358, 72 hours
Description: as §1, §2, §3, §4

NCI-H727 = test: Cell proliferation assay (CellTiterGlo), NCI-H727; format: cell-based; settings: Homo sapiens, NCI-H727, 72 hours
Description: as §1, §2, §3, §4

MKN-1 = test: Cell proliferation assay (CellTiterGlo), MKN-1; format: cell-based; settings: Homo sapiens, MKN-1, 72 hours
Description: as §1, §2, §3, §4

[2] = Microsomal stability assay, mouse liver microsomes; format: in vitro ADME; settings: CD-1, pooled mouse liver microsomes, 0.5 mg/mL protein
Description: (§5) Test results from this assay were used to determine the metabolic liabilities of test compounds and allow focus on the improvement of drug candidates through structure-activity relationships. Pooled mouse/rat/human liver microsomes were used for this assay
(§6) In vitro mouse (CD-1, BioIVT)/rat (SD, RILD)/human (Corning) liver microsomal suspensions at 0.5 mg/mL protein and 1.3 mM NADPH, 3.3 mM MgCl2 were pre incubated at 37° C. for 3 mins prior to addition of 0.1 mM test compound solution to give a final incubation concentration of 1 μM. Samples were incubated for 0, 15, 30, 60 minutes at 37° C. on a shaker (the positive control substance was cultured for 0 or 60 minutes). At the end of each incubation time both incubated and control samples were quenched with ice-cold stop solution containing internal standard. All samples were mixed by a plate shaker at 800 rpm for 5 minutes, then centrifuged at 4100 rpm for 15 minutes at 4° C. to precipitate protein. Supernatant was transferred to another 96-well plate, dilution solution was added to each supernatant well, and then each bioanalysis plate was sealed. The samples were mixed by plate shaker at 800 rpm for 5 minutes and then centrifuged at 4° C., 4100 rpm for 5 minutes. All samples were stored at 4° C. before LC-MS/MS analysis.
(§7) The peak area ratio was converted to the remaining percentages (% Remaining) using the following formula: […]
(§8) where % Remaining is the compound ratio (compound peak area/internal standard peak area) as a percentage of the 0 minute time point.
(§9) The ln remaining percent of test articles were plotted against time and the gradient of the line determined; the gradient was converted to elimination rate constant by using the following formula:
(§10) Elimination rate constant(ke)=−gradient
(§11) Half time (T1/2) was determined using following formula: […]
(§12) Hepatic intrinsic clearance (CLint(liver)) was determined by using the following formulas: […]
(§13) The Intrinsic clearance of selected compounds is depicted in Table 6.

[3] = Microsomal stability assay, rat liver microsomes; format: in vitro ADME; settings: SD, pooled rat liver microsomes, 0.5 mg/mL protein
Description: as §5, §6, §7, §8, §9, §10, §11, §12, §13

[4] = Microsomal stability assay, human liver microsomes; format: in vitro ADME; settings: pooled human liver microsomes, 0.5 mg/mL protein
Description: as §5, §6, §7, §8, §9, §10, §11, §12, §13

Chain of His-tagged Human KRAS^G12D (P01116-2 other isoform, or with tags, fused parts or gaps G12D): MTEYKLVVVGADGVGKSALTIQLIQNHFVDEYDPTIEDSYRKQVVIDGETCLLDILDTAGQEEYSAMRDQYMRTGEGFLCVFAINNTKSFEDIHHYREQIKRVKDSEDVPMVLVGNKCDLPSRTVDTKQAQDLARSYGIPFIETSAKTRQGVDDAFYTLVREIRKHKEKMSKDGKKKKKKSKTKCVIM

SMILES | IC50 [1] [nM] | IC50 (NCI-H358) [nM] | also measured
CCc1c(F)ccc2cc(O)cc(-c3ncc4c(N5CC[C@@H](O)C5)nc(OC[C@@]56CCCN5C[C@H](F)C6)nc4c3F)c12 [Compound 1] | 261 | 3210 | IC50 (GP2D): 4220 nM; IC50 (NCI-H727): 1870 nM; IC50 (MKN-1): 4090 nM
CCc1c(F)ccc2cc(O)cc(-c3ncc4c(N5CCCC6(CCO6)C5)nc(OCC5(CN6CCOCC6)CC5)nc4c3F)c12 (stereo not drawn) [Compound 2a] | 18.8 | – | CLint scaled at 1 μM [2]: 2630 mL/min/kg; CLint scaled at 1 μM [3]: 887 mL/min/kg; CLint scaled at 1 μM [4]: 402 mL/min/kg
CCc1c(F)ccc2cc(O)cc(-c3ncc4c(N5CCC[C@H]5CO)nc(OC[C@@]56CCCN5C[C@H](F)C6)nc4c3F)c12 [Compound 3] | – | 1660 | IC50 (GP2D): 1570 nM; IC50 (NCI-H727): 1080 nM; IC50 (MKN-1): 1780 nM
CCc1c(F)ccc2cc(O)cc(-c3ncc4c(N5CCC[C@H]5C(N)=O)nc(OC[C@@]56CCCN5C[C@H](F)C6)nc4c3F)c12 [Compound 6] | 1390 | > 10000 | IC50 (NCI-H727): > 10000 nM; IC50 (MKN-1): > 10000 nM
CCc1c(F)ccc2cc(O)cc(-c3ncc4c(N5CCC[C@H]5C(=O)OC)nc(OC[C@@]56CCCN5C[C@H](F)C6)nc4c3F)c12 [Compound 7] | > 1000 | 7980 | IC50 (NCI-H727): 5310 nM; IC50 (MKN-1): > 10000 nM
CCc1c(F)ccc2cc(O)cc(-c3ccc4c(N5CCC[C@]6(CCO6)C5)nc(OCC5(CN(C)C)CC5)nc4c3F)c12 [Compound 15a] | 19.6 | – | CLint scaled at 1 μM [2]: 371 mL/min/kg; CLint scaled at 1 μM [3]: 52.9 mL/min/kg; CLint scaled at 1 μM [4]: 31.8 mL/min/kg
CCc1c(F)ccc2cc(O)cc(-c3ncc4c(N5CCC[C@]6(CCO6)C5)nc(OCC5(CN6CCC7(CC6)COC7)CC5)nc4c3F)c12 [Compound 18a] | 4.5 | 23 | IC50 (GP2D): 1.9 nM
CCc1c(F)ccc2cc(O)cc(-c3ncc4c(N5CCC[C@]6(CCO6)C5)nc(OCC5(CN6CCC7(CC6)CC(N6CCC(c8ccc9cnn(C)c9c8)CC6)C7)CC5)nc4c3F)c12 [Compound 19a] | 16.1 | 15.2 | IC50 (GP2D): 14.1 nM
CCc1c(F)ccc2cc(O)cc(-c3ncc4c(N5CCC[C@]6(CCO6)C5)nc(OCC5(CN6CCC7(CC6)CC(N6CCOCC6)C7)CC5)nc4c3F)c12 [Compound 20a] | 4.7 | 125 | IC50 (GP2D): 4.7 nM
CCc1c(F)ccc2cc(O)cc(-c3ncc4c(N5CCC[C@]6(CCO6)C5)nc(OCC5(CN6CCC7(CC6)CC(N6CCCCC6)C7)CC5)nc4c3F)c12 [Compound 21a] | 6.8 | 92.2 | IC50 (GP2D): 16.3 nM
CCc1c(F)ccc2cc(O)cc(-c3ncc4c(N5CCC[C@]6(CCO6)C5)nc(OCC5(CN6CCC(C(=O)O)CC6)CC5)nc4c3F)c12 [Compound 33a] | 10.3 | > 10000 | IC50 (GP2D): 421 nM
CCc1c(F)ccc2cc(O)cc(-c3ncc4c(N5CCC6(CCCC6=O)CC5)nc(OC[C@@]56CCCN5C[C@H](F)C6)nc4c3F)c12 [Compound 58] | > 1000 | – | –
CCc1c(F)ccc2cc(O)cc(-c3ncc4c(N5CCC6(CCC6=O)CC5)nc(OC[C@@]56CCCN5C[C@H](F)C6)nc4c3F)c12 [Compound 59] | > 1000 | – | –
CCc1c(F)ccc2cc(O)cc(-c3ncc4c(N5CCC6(CCO6)CC5)nc(OC[C@@]56CCCN5C[C@H](F)C6)nc4c3F)c12 [Compound 60] | > 1000 | – | –
CCc1c(F)ccc2cc(O)cc(-c3ncc4c(N5CCC6(COC6)C5)nc(OC[C@@]56CCCN5C[C@H](F)C6)nc4c3F)c12 [Compound 61] | > 1000 | – | –
CCc1c(F)ccc2cc(O)cc(-c3ncc4c(N5CCC6(CCO6)C5)nc(OC[C@@]56CCCN5C[C@H](F)C6)nc4c3F)c12 (stereo partly drawn) [Compound 62] | > 1000 | – | –
Nc1cc(Cl)c(C(F)(F)F)c(-c2ncc3c(N4CCCC5(COC5)C4)nc(OC[C@@]45CCCN4C[C@H](F)C5)nc3c2F)c1 [Compound 63] | > 1000 | – | –
CCc1c(F)ccc2cc(O)cc(-c3ncc4c(N5CCCC6(CCOC6)C5)nc(OC[C@@]56CCCN5C[C@H](F)C6)nc4c3F)c12 (stereo partly drawn) [Compound 64] | > 1000 | – | –
CCc1c(F)ccc2cc(O)cc(-c3ncc4c(N5CCC[C@@]6(CCO6)C5)nc(OC[C@@]56CCCN5C[C@H](F)C6)nc4c3F)c12 [Compound 67] | – | – | CLint scaled at 1 μM [2]: 1280 mL/min/kg; CLint scaled at 1 μM [3]: 288 mL/min/kg; CLint scaled at 1 μM [4]: 83.5 mL/min/kg
CCc1c(F)ccc2cc(O)cc(-c3ncc4c(N5CCC[C@]6(CCO6)C5)nc(OC[C@@]56CCCN5C[C@H](F)C6)nc4c3F)c12 [Compound 68] | – | – | CLint scaled at 1 μM [2]: 2270 mL/min/kg; CLint scaled at 1 μM [3]: 311 mL/min/kg; CLint scaled at 1 μM [4]: 124 mL/min/kg
CCc1c(F)ccc2cc(O)cc(-c3ccc4c(N5CCCC6(CCO6)C5)nc(OC[C@@]56CCCN5C[C@H](F)C6)nc4c3F)c12 (stereo partly drawn) [Compound 70] | 67.4 | – | –
CCc1c(F)ccc2cc(O)cc(-c3ncc4c(N5CCCC6(CCO6)C5)nc(OCC5(CN(C)C)CC5)nc4c3F)c12 (stereo not drawn) [Compound 73] | 10.7 | – | CLint scaled at 1 μM [2]: 361 mL/min/kg; CLint scaled at 1 μM [3]: 51.1 mL/min/kg; CLint scaled at 1 μM [4]: 32.4 mL/min/kg
CCc1c(F)ccc2cc(O)cc(-c3c(Cl)cc4c(N5CCCC6(CCO6)C5)nc(OC[C@@]56CCCN5C[C@H](F)C6)nc4c3F)c12 (stereo partly drawn) [Compound 92] | 416 | – | –
CCc1c(F)ccc2cc(O)cc(-c3c(F)cc4c(N5CCCC6(CCO6)C5)nc(OC[C@@]56CCCN5C[C@H](F)C6)nc4c3F)c12 (stereo partly drawn) [Compound 96] | 128 | – | –
CCc1c(F)ccc2cc(O)cc(-c3ncc4c(N5CC6(CCC6O)C5)nc(OC[C@@]56CCCN5C[C@H](F)C6)nc4c3F)c12 (stereo partly drawn) [Compound 110] | > 1000 | – | –
CCc1c(F)ccc2cc(O)cc(-c3ncc4c(N5CC6(CCC6=O)C5)nc(OC[C@@]56CCCN5C[C@H](F)C6)nc4c3F)c12 [Compound 112] | > 1000 | – | –
CCc1c(F)ccc2cc(O)cc(-c3ncc4c(N5CCCC6(C5)OCCO6)nc(OC[C@@]56CCCN5C[C@H](F)C6)nc4c3F)c12 [Compound 117] | 373 | – | –
